Consider 36 molecules from patent US7858349B2, “Anti-cancer compounds” (The Regents of the University of Colorado, priority 1999, dated 2010).

One assay relates to PC3 PC cells. Nature of the assay: Inhibition of PC3 tumor growth in vivo in nude mice. The note with it: percent inhibition of tumor growth in nude mice; prostate cancer; i.p. 5 mg/kg/every second day or 10 mg/kg/every fourth day. On the set-up: species or system athymic nude mice; key to PC3 In vivo % inhib.: an IC50 value of “0” represents no detectable anti-cancer activity for a drug in a given cell line; “Stim.” indicates the observation of a stimulatory activity on the growth of the cancer cell line. The procedure:
Compounds having high in vitro cytotoxic activity were tested against implanted tumors in vivo. Athymic nude mice were implanted subcutaneously with suspensions (2 million SHP-77 SCLC cells, 1 million A549 NSCLC cells or 1.5 million PC3 PC cells) in Matrigel suspension. On the eighth day after tumor implantation groups of 5 mice bearing implants were injected intraperitoneally with the compounds being tested at 5 mg/kg/every second day or at 10 mg/kg/every fourth day; control animals were injected with an equal volume of isotonic saline. Less soluble compounds were initially dissolved in dimethyl sulfoxide (DMSO) and diluted with medium. In those cases the control injections contained the same concentration of DMSO. Tumor size was measured with a caliper three times per week. Tumor volume was calculated by the formula: Volume(cc)=3.14×(length)×(width)^2/6 At autopsy tumors were removed and weighed. Tumor inhibition was calculated on both weight and measurement basis. In each Table, an IC50 value of “0” represents no detectable anti-cancer activity for a drug in a given cell line and “Stim.” indicates the observation of a stimulatory activity on the growth of the cancer cell line.

A further assay deals with SCLC strain SHP-77. Nature of the assay: MTT assay for cell survival, SCLC SHP-77 in vitro. The format is cell-based, human. The note with it: ED50 for killing of SCLC strain SHP-77 in vitro, 4 days, 0 = no detectable activity. In general terms: Tetrazolium dyes change colour on reduction, which living cells bring about.

Where two headings read alike, the source gives them in different places.

As a reminder, the IC50 is the concentration at which inhibition is half-maximal. For the molecule `O=C(N[C@@H]1CN2CCC1CC2)C(Cc1ccc(OCc2c(Cl)cccc2Cl)cc1)NC(=O)C(c1ccccc1)C1CCCCC1` (single isomer, unassigned) [M-1550 #1], the “PC3 In vivo % inhib.” value in the assay on PC3 PC cells was 36%. The IC50 with SCLC strain SHP-77 (read-out: SCLC SHP-77 IC50) came to 2.5 µM.
`O=C(N[C@@H]1CN2CCC1CC2)C(Cc1ccc(OCc2c(Cl)cccc2Cl)cc1)NC(=O)C(c1ccccc1)C1CCCCC1` (single isomer, unassigned) [M-1550 #2]: in the assay with PC3 PC cells, the “PC3 In vivo % inhib.” value is reported as “Stim”. For the same molecule, the IC50 in the assay on SCLC strain SHP-77 (read-out: SCLC SHP-77 IC50) was 4 µM.
For `CC1(C)CC(NC(=O)C(NC(=O)C=Cc2c(F)c(F)c(F)c(F)c2F)C2Cc3ccccc3C2)CC(C)(C)N1` (stereo not drawn) [Analog M-1052, F5c-Igl-Atmp], the “PC3 In vivo % inhib.” value in the assay with PC3 PC cells is on record as 27%. The IC50 with SCLC strain SHP-77 (read-out: SHP-77 In vitro IC50) came to 7.3 µM.
For `CC1(C)CC(NC(=O)C(Cc2c(F)c(F)c(F)c(F)c2F)NC(=O)C=Cc2c(F)c(F)c(F)c(F)c2F)CC(C)(C)N1` (stereo not drawn) [Analog M-1054, F5c-F5F-Atmp] the same measures were 47% and 4.6 µM.
For `CC1(C)CC(NC(=O)C(Cc2ccc(OCc3c(Cl)cccc3Cl)cc2)NS(=O)(=O)c2c(F)c(F)c(F)c(F)c2F)CC(C)(C)N1` (stereo not drawn) [Analog M-1092, F5BS-OC2Y-Atmp] the same measures were “Stim” and 14 µM.
The corresponding values for `CC1(C)CC(NC(=O)C(Cc2ccc(OCc3c(Cl)cccc3Cl)cc2)NC(=S)Nc2c(F)c(F)c(F)c(F)c2F)CC(C)(C)N1` (stereo not drawn) [Analog M-1094, F5PT-OC2Y-Atmp] are 52% and 3.2 µM.
Regarding `CC1(C)CC(NC(=O)[C@@H](Cc2ccc(OCc3c(Cl)cccc3Cl)cc2)NC(=O)/C=C/c2c(F)c(F)c(F)c(F)c2F)CC(C)(C)N1` [Analog M-1108, F5c-D-OC2Y-Atmp], the “PC3 In vivo % inhib.” value in the assay on PC3 PC cells was 46%. For the same molecule, in the assay with SCLC strain SHP-77 (read-out: SHP-77 In vitro IC50), the IC50 was more than 60 µM.
The corresponding values for `CC1(C)CC(NC(=O)C(Cc2ccc(C#N)cc2)NC(=O)C=Cc2c(F)c(F)c(F)c(F)c2F)CC(C)(C)N1` (stereo not drawn) [Analog M-1110, F5c-PCNF-Atmp] are 54% and 0.9 µM.
As to `CC1(C)CC(NC(=O)C(Cc2ccc([N+](=O)[O-])cc2)NC(=O)C=Cc2c(F)c(F)c(F)c(F)c2F)CC(C)(C)N1` (stereo not drawn) [Analog M-1112, F5c-PNF-Atmp], the “PC3 In vivo % inhib.” value with PC3 PC cells amounted to 24%. In addition, the half-inhibitory concentration (IC50) with SCLC strain SHP-77 (read-out: SHP-77 In vitro IC50) stood at 30 µM.
The corresponding values for `CC1(C)CC(NC(=O)C(Cc2c[nH]c3ccccc23)NC(=O)C=Cc2c(F)c(F)c(F)c(F)c2F)CC(C)(C)N1` (stereo not drawn) [Analog M-1114, F5c-Trp-Atmp] are 28% and more than 60 µM.
The corresponding values for `CC1(C)CC(NC(=O)C(Cc2ccc(OCc3c(Cl)cccc3Cl)cc2)NC(=O)C(C2CCCCC2)C2CCCCC2)CC(C)(C)N1` (stereo not drawn) [Analog M-1116, Dca-OC2Y-Atmp] are 19% and 7.5 µM.
For `CC1(C)CC(NC(=O)C(Cc2ccc(Br)cc2)NC(=O)C=Cc2c(F)c(F)c(F)c(F)c2F)CC(C)(C)N1` (stereo not drawn) [Analog M-1144, F5c-PBF-Atmp] the same measures were 20% and 7.2 µM.
With `CC1(C)CC(NC(=O)C(Cc2ccc(F)cc2)NC(=O)C=Cc2ccco2)CC(C)(C)N1` (stereo not drawn) [Analog M-1154, 2-Fa-PFF-Atmp], in the assay with PC3 PC cells, the “PC3 In vivo % inhib.” value is listed as “Stim”. The IC50 in the assay with SCLC strain SHP-77 (read-out: SHP-77 In vitro IC50) was more than 60 µM.
The corresponding values for `O=C(C=Cc1c(F)c(F)c(F)c(F)c1F)NC(Cc1ccc(F)cc1)C(=O)NC1CCN(Cc2ccccc2)CC1` (stereo not drawn) [Analog M-1156, F5c-PFF-Abzp] are 56% and 7.5 µM.
For `CC1(C)CC(NC(=O)C(Cc2ccc(-c3ccccc3)cc2)NC(=O)C(c2ccc(Cl)cc2)c2ccc(Cl)cc2)CC(C)(C)N1` (stereo not drawn) [Analog M-1244, Bcpa-Bip-Atmp] the same measures were 59% and 1.3 µM.
For `O=C(NC(Cc1ccc2ccccc2c1)C(=O)N1CCC(N2CCCCC2)CC1)C(c1ccc(Cl)cc1)c1ccc(Cl)cc1` (stereo not drawn) [Analog M-1246, Bcpa-Nal-Pipp] the same measures were “Stim” and 3.6 µM.
Consider `O=C(C=Cc1c(F)c(F)c(F)c(F)c1F)NC(Cc1ccc(-c2ccccc2)cc1)C(=O)N1CCN(c2ccccn2)CC1` (stereo not drawn) [Analog M-1258, F5c-Bip-Pypz], for which the “PC3 In vivo % inhib.” value with PC3 PC cells came to 10%. Besides, the IC50 in the assay with SCLC strain SHP-77 (read-out: SHP-77 In vitro IC50) is 48 µM.
The corresponding values for `O=C(C=Cc1c(F)c(F)c(F)c(F)c1F)NC(Cc1ccc(-c2ccccc2)cc1)C(=O)N1CCN(c2ncccn2)CC1` (stereo not drawn) [Analog M-1260, F5c-Bip-Pmpz] are 60% and 10 µM.
The corresponding values for `O=C(C=Cc1c(F)c(F)c(F)c(F)c1F)NC(Cc1ccc(-c2ccccc2)cc1)C(=O)N1CC2CC1CN2Cc1ccccc1` (stereo not drawn) [Analog M-1268, F5c-Bip-Bdbh] are 36% and 3 µM.
As to `CC1(C)CC(NC(=O)C(Cc2ccc(OCc3c(Cl)cccc3Cl)cc2)NC(=O)COc2c(F)c(F)c(F)c(F)c2F)CC(C)(C)N1` (stereo not drawn) [Analog M-1358, F5po-OC2Y-Atmp], the “PC3 In vivo % inhib.” value with PC3 PC cells came to 30%. In addition, the 50% inhibitory concentration (IC50) in the assay on SCLC strain SHP-77 (read-out: SCLC SHP-77 IC50) is 4.1 µM.
For `CC1(C)CC(NC(=O)C(Cc2ccc(OCc3c(Cl)cccc3Cl)cc2)NC(=O)c2c(F)c(F)c(F)c(F)c2F)CC(C)(C)N1` (stereo not drawn) [Analog M-1360, F5bz-OC2Y-Atmp] the same measures were “Stim” and 4.1 µM.
For `CC1(C)CC(NC(=O)C(Cc2ccc(OCc3c(Cl)cccc3Cl)cc2)NC(=O)C2=CN3CCC2CC3)CC(C)(C)N1` (stereo not drawn) [Analog M-1396, Dhq-OC2Y-Atmp] the same measures were 9% and 15 µM.
For `CC1(C)CC(NC(=O)C(Cc2ccc(OCc3c(Cl)cccc3Cl)cc2)NC(=O)C#Cc2ccccc2)CC(C)(C)N1` (stereo not drawn) [Analog M-1398, Ppr-OC2Y-Atmp] the same measures were 65% and 8 µM.
Take `CC1(C)CC(NC(=O)C(Cc2ccc(OCc3c(Cl)cccc3Cl)cc2)NC(=O)C(=Cc2ccccc2)c2ccccc2)CC(C)(C)N1` (stereo not drawn) [Analog M-1400, Pcn-OC2Y-Atmp]: in the assay on PC3 PC cells, the “PC3 In vivo % inhib.” value is “Stim”. Further, the half-inhibitory concentration (IC50) in the assay on SCLC strain SHP-77 (read-out: SCLC SHP-77 IC50) was determined as 1.3 µM.
On to `CC1(C)CC(NC(=O)C(Cc2ccc(OCc3c(Cl)cccc3Cl)cc2)NC(=O)C2C(C)(C)C2(C)C)CC(C)(C)N1` (stereo not drawn) [Analog M-1406, Tmcc-OC2Y-Atmp], for which the “PC3 In vivo % inhib.” value in the assay on PC3 PC cells is given as 25%. Moreover, in the assay on SCLC strain SHP-77 (read-out: SCLC SHP-77 IC50), the IC50 came out at 5.3 µM.
For `COc1cc(C(=O)NC(Cc2ccc(OCc3c(Cl)cccc3Cl)cc2)C(=O)NC2CC(C)(C)NC(C)(C)C2)cc(OC)c1OC` (stereo not drawn) [Analog M-1408, 3,4,5Tmb-OC2Y-Atmp] the same measures were “Stim” and 8 µM.
In the case of `CCCCCC=CC(=O)NC(Cc1ccc(OCc2c(Cl)cccc2Cl)cc1)C(=O)NC1CC(C)(C)NC(C)(C)C1` (stereo not drawn) [Analog M-1412, 2Octe-OC2Y-Atmp], the “PC3 In vivo % inhib.” value in the assay on PC3 PC cells was 38%. Moreover, the IC50 in the assay on SCLC strain SHP-77 (read-out: SCLC SHP-77 IC50) is 12 µM.
On to `CC1(C)CC(NC(=O)C(Cc2ccc(OCc3c(Cl)cccc3Cl)cc2)NC(=O)C=Cc2ccc3c(c2)OCO3)CC(C)(C)N1` (stereo not drawn) [Analog M-1414, 34Mdc-OC2Y-Atmp], for which the “PC3 In vivo % inhib.” value with PC3 PC cells is on record as “Stim”. Moreover, the IC50 in the assay on SCLC strain SHP-77 (read-out: SCLC SHP-77 IC50) turned out to be 7.1 µM.
The corresponding values for `CC1(C)CC(NC(=O)C(Cc2ccc(OCc3c(Cl)cccc3Cl)cc2)NC(=O)C=Cc2cccs2)CC(C)(C)N1` (stereo not drawn) [Analog M-1418, Thia-OC2Y-Atmp] are 9% and 8.6 µM.
For `CC1(C)CC(NC(=O)C(Cc2ccc(OCc3c(Cl)cccc3Cl)cc2)NC(=O)c2c(F)c(N)cc(F)c2F)CC(C)(C)N1` (stereo not drawn) [Analog M-1420, Atfb-OC2Y-Atmp] the same measures were “Stim” and 12 µM.
For `CC1(C)CC(NC(=O)C(Cc2ccc(OCc3c(Cl)cccc3Cl)cc2)NC(=O)C2(c3ccc(Cl)cc3)CC2)CC(C)(C)N1` (stereo not drawn) [Analog M-1422, Cpcpc-OC2Y-Atmp] the same measures were 31% and 13 µM.
For the molecule `Cc1ccc(CSC(C)(C)C(NC(=O)C=Cc2c(F)c(F)c(F)c(F)c2F)C(=O)NC2CC(C)(C)NC(C)(C)C2)cc1` (stereo not drawn) [Analog M-1430, F5c-Pen(Mbzl)-Atmp], the “PC3 In vivo % inhib.” value in the assay with PC3 PC cells was determined as 50%. Besides, the 50% inhibitory concentration (IC50) in the assay with SCLC strain SHP-77 (read-out: SCLC SHP-77 IC50) stood at 6.1 µM.
The corresponding values for `CC1(C)CC(NC(=O)C(Cc2ccc(OCc3c(Cl)cccc3Cl)cc2)NC(=O)C2CCc3ccccc3C2)CC(C)(C)N1` (stereo not drawn) [Analog M-1440, Th2n-OC2Y-Atmp] are 15% and 3.5 µM.
For the molecule `O=C(/C=C/c1c(F)c(F)c(F)c(F)c1F)N[C@@H](Cc1ccc(OCc2c(Cl)cccc2Cl)cc1)C(=O)N1CCN(c2cccc(Cl)c2Cl)CC1` [Analog M-1578, F5c-OC2Y-Dcpp], the “PC3 In vivo % inhib.” value in the assay with PC3 PC cells was “Stim”.
With `CC1(C)CC(NC(=O)C(Cc2ccc(OCc3c(Cl)cccc3Cl)cc2)NC(=O)C(F)(F)C(F)(F)C(F)(F)C(=O)O)CC(C)(C)N1` (stereo not drawn) [M-1098 #1, CHFB-OC2Y-Atmp], the concentration for half-maximal inhibition (IC50) with SCLC strain SHP-77 (read-out: SHP-77 In vitro IC50) was more than 60 µM.
Still for that read-out and setting: for `CC1(C)CC(NC(=O)C(Cc2ccc(OCc3c(Cl)cccc3Cl)cc2)NC(=O)C(F)(F)C(F)(F)C(F)(F)C(=O)O)CC(C)(C)N1` (stereo not drawn) [M-1098 #2, CHFB-OC2Y-Atmp] the value was 6.8 µM.
